In ChEMBL document CHEMBL3045827, “High osmolar contrast medium causes mild oxidation in liver, bladder, and ovary tissues from rats: vitamin C has protective role” (2010) one finds Activity data, which are given here for one compound.

In assay [1] the test system is Rattus norvegicus. Briefly: Inhibition of ionic high-osmolar contrast medium-induced oxidative stress in Rattus norvegicus Wistar albino (rat) liver assessed as MDA level at 250 mg/kg/day administered through drinking water measured on 6th day by TBARS method (reference value: 0.579 +/- 0.129 %). The class given is functional. Also noted: scale not given: the % may be the effect or the level left.

Assay [2] deals with Rattus norvegicus. In words: Inhibition of ionic high-osmolar contrast medium-induced oxidative stress in Rattus norvegicus Wistar albino (rat) liver assessed as catalase activity at 250 mg/kg/day administered through drinking water measured on 6th day (reference value: 119.8 +/- 13.43 IU). The class given is functional.
The subject of assay [3] is Rattus norvegicus. Briefly: Inhibition of ionic high-osmolar contrast medium-induced oxidative stress in Rattus norvegicus Wistar albino (rat) liver assessed as NO level at 250 mg/kg/day administered through drinking water measured on 6th day by Griess reaction method (reference value: 1.082 +/- 0.359%). The format is functional. Also noted: scale not given: the % may be the effect or the level left. In general terms: The Griess reaction detects nitrite, a stable product of nitric oxide.

The test system of assay [4] is Rattus norvegicus. Briefly: Inhibition of ionic high-osmolar contrast medium-induced oxidative stress in Rattus norvegicus Wistar albino (rat) liver assessed as GSH-Px activity at 250 mg/kg/day administered through drinking water measured on 6th day (reference value: 0.056 +/- 0.019 IU). The class given is functional.
Assay [5] concerns Rattus norvegicus. Briefly: Inhibition of ionic high-osmolar contrast medium-induced oxidative stress in Rattus norvegicus Wistar albino (rat) liver assessed as NOS activity at 250 mg/kg/day administered through drinking water measured on 6th day (reference value: 0.208 +/- 0.031 mIU/ml). The class given is functional.
Assay [6] concerns Rattus norvegicus. In words: Inhibition of ionic high-osmolar contrast medium-induced oxidative stress in Rattus norvegicus Wistar albino (rat) bladder assessed as MDA level at 250 mg/kg/day administered through drinking water measured on 6th day by TBARS method (reference value: 1.180 +/- 0.803 %). The class given is functional. Also noted: scale not given: the % may be the effect or the level left.

For assay [7], the system named is Rattus norvegicus. In words: Inhibition of ionic high-osmolar contrast medium-induced oxidative stress in Rattus norvegicus Wistar albino (rat) liver assessed as SOD activity at 250 mg/kg/day administered through drinking water measured on 6th day by NBT reduction method (reference value: 146.4 +/- 25.89 U/mg). The format is functional.
Assay [8] deals with Rattus norvegicus. Briefly: Inhibition of ionic high-osmolar contrast medium-induced oxidative stress in Rattus norvegicus Wistar albino (rat) ovary assessed as MDA level at 250 mg/kg/day administered through drinking water measured on 6th day by TBARS method (reference value: 0.986 +/- 0.323 %). The class given is functional, Female gonad. More on the design: scale not given: the % may be the effect or the level left.

Take `O=C1O[C@H]([C@@H](O)CO)C(O)=C1O` [ASCORBIC ACID]: the Activity in the assay on Rattus norvegicus [1] came to 0.49%; in the assay with Rattus norvegicus [2], 118.9 IU; with Rattus norvegicus [3] it was 0.965%; in the assay with Rattus norvegicus [4], 0.05 IU; in the assay on Rattus norvegicus [5], 0.224 mIU/ml; with Rattus norvegicus [6], 0.821%. The Activity in the assay with Rattus norvegicus [7] was found to be 193.2 U/mg; in the assay with Rattus norvegicus [8], 0.762%.
